Results taken from publication PMC12579162, “Synthesized Depside Molecules Suppress the Progression of Colorectal Cancer by Binding VDAC1/PHB/MMP9 Being at the Crossroads of Stemness, Motility, Apoptosis, and Metabolism” (MedComm, 2025).
Like-named read-outs stand apart in the source and are kept apart here.

Legend:
CSC221 cells = test: MTT cell viability, CSC221; type: cell-based; details: Homo sapiens; 48 h, MTT assay
Protocol: (§1) Cells (3 × 10^3 cells/well) were seeded on a 96‐well plate, grown overnight, and then treated with compounds at indicated concentrations for 48 h. After incubation with MTT for 4 h at 37°C, cells were lysed with 150 µL of DMSO (Sigma–Aldrich, St. Louis, USA). Absorbance was measured at 570 nm on a microplate reader with the Gen5 software (v.2.03.1; BioTek, Winooski, VT, USA).

CaCo2 cells = test: MTT cell viability, CaCo2; type: cell-based; details: Homo sapiens, Caco-2; 48 h, MTT assay
Protocol: as §1

HT29 cells = test: MTT cell viability, HT29; type: cell-based; details: Homo sapiens, HT-29; 48 h, MTT assay
Protocol: as §1

CT26 cells = test: MTT cell viability, CT26; type: cell-based; details: Mus musculus, 48 h, MTT assay
Protocol: as §1

SW620 cells = test: MTT cell viability, SW620; type: cell-based; details: Homo sapiens, SW-620; 48 h, MTT assay
Protocol: as §1

HaCaT cells = test: MTT cell viability, HaCaT; type: cell-based; details: Homo sapiens, 48 h, MTT assay
Protocol: as §1

HEK293T cells = test: MTT cell viability, HEK293T; type: cell-based; details: Homo sapiens, HEK-293T; 48 h, MTT assay
Protocol: as §1

[1] = Tissue distribution in CT26 tumor-bearing mice (LC–MS/MS); type: in vivo; details: Balb/c mice, 10 mg/kg; for distribution in tumor and intestines: 24 h, compared with TU and DA; for concentration at 24 h: mouse
Protocol: Concentrations of TU, DA, SB4, and SB5 in tissues (liver, intestine, and tumor) and plasma were measured using LC–MS/MS. Samples were prepared by 40 µL of plasma or the supernatant separated from the tissue pellet and added 120 µL of acetonitrile (ACN) containing internal standard (IS). The samples were vortexed, sonicated for 30 min, and then left on ice for 15 min. Subsequently, the samples were centrifuged at 3000×g for 20 min, and the supernatant was analyzed. Calibration curves were prepared by matrix matched with tissue supernatants‐treated DMSO. The standard concentrations were set at 0, 62.5, 250, and 1000 nM for each compound. The LC–MS/MS system comprised a 40D‐XS UHPLC system (Shimadzu), and API 4000 mass spectrometer equipped with a Turbo V IonSpray source (Applied Biosystems). The sample separation was performed on a Waters Atlantis dC18 column (2.1 × 100 mm, 3 µm) using a mobile phase consisting of 0.1% formic acid in water (mobile phase A) and 0.1% formic acid in ACN (mobile phase B). A linear gradient of the two solvents was used (0 min, 0% B; 4 min, 50% B; 7 min, 95% B; 8 min, 0% B), and the equilibration time was 2 min. The flow rate was set at 0.4 mL/min, the column temperature was maintained at 30°C, and the injection volume was 10 µL.
MS/MS analysis was conducted in multiple reaction monitoring (MRM). In positive ion mode transitions were set for DA (m/z 375 → 193), SB4 (m/z 447 → 193), SB5 (m/z 461 → 193), and the IS carbamazepine (100 nM, m/z 237 → 197). In negative ion mode, MRM transitions were monitored for TU (m/z 339 → 217) and the IS 4‐methylumbelliferone (300 nM, m/z 175 → 133). The Turbo V Ion Spray interface was operated in 5500 V (pos) or −4500 V (neg), with a source temperature of 600°C. Nebulizing gas flow, auxiliary gas flow, and curtain gas flow were set at 50, 40, and 30 L/min, respectively, while the collision gas pressure was maintained at 3.4 × 10^−⁵ Torr. Data were analyzed by analyst 1.6.2 (AB Sciex, Framingham, USA).

[2] = tested on: CRC cells (CaCo2, DLD1, HCT116, HT29, and SW620); test: Spheroid formation assay, CRC cell lines; type: cell-based, human; details: 2.5 and 5 µM, 10–14 days
Protocol: Monolayer cells were separated into single‐cell suspensions at around 70% confluence using a solution of trypsin. After that, the cells were added to N2‐supplemented DMEM/F12 that contained human basal fibroblast growth factor and human recombinant epidermal growth factor. Cells seeded at a density of 5 × 10^3 cells/well in ultra‐low attachment 24‐well plates (Corning Inc., Corning, NY, USA). After 10–14 days of culture, spheres were quantitated by inverted phase contrast microscopy. The relative sphere formation ability was calculated through the IMT iSolution software (IMT iSolution Inc., Northampton, NJ, USA) measuring the pixel intensity of the sphere area randomly in each plate.

CRC cells = test: Transwell invasion assay; type: cell-based, human; details: 5 µM, 24 h, versus vehicle-treated control
CRC cell lines = test: Apoptosis / cell death analysis; type: cell-based, human
Protocol: Cells were cultured in a six‐well plate at the density of 2 × 10^5 cells/well until adherence. Cells were treated with DMSO or compound for 48 h. Apoptosis or cell cycle experiments were then performed. For apoptosis analysis, cells were harvested and washed with PBS, resuspended in 100 µL of 1× binding buffer followed by staining with 4 µL of Annexin V–FITC (BD, Biosciences, San Jose, CA, USA), and 8 µL of 50 µg/mL propidium iodide (PI; BD Biosciences, San Jose, CA, USA) for 30 min in the dark. For cell cycle analysis, cells were washed with FACS washing buffer, incubated with trypsin solution, followed by RNase A for 10 min at room temperature. Cells were centrifuged and pellets were collected and stained with 100 µL of 4 mg/mL PI (Sigma–Aldrich) for 2 h in the dark at 4°C. Cells were detected by flow cytometry on a CytoFLEX instrument (Beckman Coulter Life Sciences, Indianapolis, IN, USA).

[3] = liver, read-out: concentration in liver
[4] = plasma, read-out: quantity in plasma

Structure (SMILES) | IC50 (CSC221 cells) [µM] | IC50 (CaCo2 cells) [µM] | IC50 (HT29 cells) [µM] | IC50 (CT26 cells) [µM] | IC50 (SW620 cells) [µM] | IC50 (HaCaT cells) [µM] | IC50 (HEK293T cells) [µM] | distribution in tumor and intestines [1] | concentration at 24 h [1, 3] [nM] | concentration at 24 h [1, 4] [nM] | spheroid formation [2] | number of invaded cells (CRC cells) | concentration with cell death ability (CRC cell lines) [µM]
COCCCOc1c(C)c(OC(=O)c2c(C)cc(OC)c(C)c2OC)cc(C)c1C(=O)OC [SB5, 4-(Methoxycarbonyl)-3-(3-methoxypropoxy)-2,5-dimethylphenyl 2,4-dimethoxy-3,6-dimethylbenzoate] | 131 | 2.77 | 7.47 | 2.27 | 2.27 | 70.7 | 63.2 | bioavailability is improved compared with TU and DA | 1 to 2 | < 2 | suppressed spheroid formation | significantly reduced the number of invaded cells | ~10
COCCOc1c(C)c(OC(=O)c2c(C)cc(OC)c(C)c2OC)cc(C)c1C(=O)OC [SB4, 4-(Methoxycarbonyl)-3-(2-methoxyethoxy)-2,5-dimethylphenyl 2,4-dimethoxy-3,6-dimethylbenzoate] | 60 | 8.74 | 3.95 | 5.33 | 5.33 | 26.7 | 19 | bioavailability is improved compared with TU and DA | 1 to 2 | < 2 | suppressed spheroid formation | significantly reduced the number of invaded cells | ~10
